The structures appear in SMILES notation. Activity calls are given as the source filed them. How the calls were made is not given here.

This series concerns rodent carcinogenicity bioassays, tumor incidence. Description: CCRIS carcinogenicity studies. In short, it runs like this:
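NCI-built, expert-reviewed records of carcinogenicity and related test outcomes (mutagenicity, tumor promotion/inhibition) compiled from published and report sources, historical span 1985-2011, not updated.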

Regarding `C=CCc1ccc(OC)c(OC)c1`, the carcinogen call (Species: MOUSE, Strain/Sex: B6C3F1/FEMALE, Route: GAVAGE, Dose: 0, 37, 75, 150 MG/KG BW IN 0.5% METHYLCELLULOSE 5 D/WK FOR 105 WK (STUDY DURATION: 105 WK), Dose: 0, 37, 75, 150 MG/KG BW IN 0.5% METHYLCELLULOSE 5 D/WK FOR 105 WK (STUDY DURATION: 105 WK), Tumor Site: Type of Lesion: LIVER: HEPATOCELLULAR ADENOMA, HEPATOCELLULAR CARCINOMA, HEPATOBLASTOMA) is “active; positive”; the carcinogen call (Species: MOUSE, Strain/Sex: B6C3F1/MALE, Route: GAVAGE, Dose: 0, 37, 75, 150 MG/KG BW IN 0.5% METHYLCELLULOSE 5 D/WK FOR 105 WK (STUDY DURATION: 105 WK), Dose: 0, 37, 75, 150 MG/KG BW IN 0.5% METHYLCELLULOSE 5 D/WK FOR 105 WK (STUDY DURATION: 105 WK), Tumor Site: Type of Lesion: LIVER: TUMOR) was “active; positive”; the carcinogen call (Species: RAT, Strain/Sex: F344/N/FEMALE, Route: GAVAGE, Dose: 0, 37, 75, 150 MG/KG BW IN 0.5% METHYLCELLULOSE 5D/WK FOR 105 WK (STUDY DURATION: 105 WK), Dose: 0, 37, 75, 150 MG/KG BW IN 0.5% METHYLCELLULOSE 5D/WK FOR 105 WK (STUDY DURATION: 105 WK), Tumor Site: Type of Lesion: LIVER: HEPATOCELLULAR ADENOMA OR CARCINOMA, GLANDULAR STOMACH: BENIGN OR MALIGNANT NEUROENDOCRINE TUMOR) is “active; positive”; the carcinogen call (Species: RAT, Strain/Sex: F344/N/FEMALE, Route: GAVAGE, Dose: 0, 300 MG/KG BW IN 0.5% METHYLCELLULOSE 5D/WK FOR 52 WK (STUDY DURATION: 105 WK), Tumor Site: Type of Lesion: ADRENAL MEDULLA: BENIGN PHEOCHROMOCYTOMA, LIVER: HEPATOCELLULAR ADENOMA OR CARCINOMA, HEPATOCHOLANGIOMA OR HEPATOCHOLANG) is “active; positive”; the carcinogen call (Species: RAT, Strain/Sex: F344/N/MALE, Route: GAVAGE, Dose: 0, 37, 75, 150 MG/KG BW IN 0.5% METHYLCELLULOSE 5 D/WK FOR 105 WK (STUDY DURATION: 105 WK), Dose: 0, 37, 75, 150 MG/KG BW IN 0.5% METHYLCELLULOSE 5 D/WK FOR 105 WK (STUDY DURATION: 105 WK), Tumor Site: Type of Lesion: LIVER: HEPATOCELLULAR ADENOMA OR CARCINOMA, GLANDULAR STOMACH: MALIGNANT NEUROENDOCRINE TUMOR, KIDNEY: ADENOMA, MAMMARY, Tumor Site: Type of Lesion: LIVER: HEPATOCELLULAR ADENOMA OR CARCINOMA, GLANDULAR STOMACH: MALIGNANT NEUROENDOCRINE TUMOR, KIDNEY: ADENOMA, MAMMARY) was “active; positive”; the carcinogen call (Species: RAT, Strain/Sex: F344/N/MALE, Route: GAVAGE, Dose: 0, 300 MG/KG BW IN 0.5% METHYLCELLULOSE 5 D/WK FOR 52 WK (STUDY DURATION: 105 WK), Tumor Site: Type of Lesion: KIDNEY: RENAL TUBULE ADENOMA OR CARCINOMA, LIVER: HEPATOCELLULAR ADENOMA OR CARCINOMA, HEPATOCHOLANGIOMA OR HEPATOCHOLAN) was “active; positive”.
Regarding `Nc1cc(Cl)cc(C(=O)O)c1Cl`, the carcinogen call reads like this: (Species: MOUSE, Strain/Sex: B6C3F1/FEMALE, Route: ORAL, Dose: 0, 10000, 20000 PPM IN DIET FOR 80 WK (STUDY DURATION: 91-92 WK), Dose: 0, 10000, 20000 PPM IN DIET FOR 80 WK (STUDY DURATION: 91-92 WK), Tumor Site: Type of Lesion: LIVER: HEPATOCELLULAR CARCINOMA) “active; positive”; (Species: MOUSE, Strain/Sex: B6C3F1/MALE, Route: ORAL, Dose: 0, 10000, 20000 PPM IN DIET FOR 80 WK (STUDY DURATION: 91-92 WK), Dose: 0, 10000, 20000 PPM IN DIET FOR 80 WK (STUDY DURATION: 91-92 WK), Tumor Site: Type of Lesion: LIVER: HEPATOCELLULAR CARCINOMA) “equivocal”; (Species: RAT, Strain/Sex: OSBORNE-MENDEL/FEMALE, Route: ORAL, Dose: 0, 10000, 20000 PPM IN DIET FOR 80 WK (STUDY DURATION: 112-113 WK ), Dose: 0, 10000, 20000 PPM IN DIET FOR 80 WK (STUDY DURATION: 112-113 WK )) “inactive; negative”; (Species: RAT, Strain/Sex: OSBORNE-MENDEL/MALE, Route: ORAL, Dose: 0, 10000, 20000 PPM IN DIET FOR 80 WK (STUDY DURATION: 112-113 WK), Dose: 0, 10000, 20000 PPM IN DIET FOR 80 WK (STUDY DURATION: 112-113 WK)) “inactive; negative”.
Take `CC1=CC(=C(c2ccc(N)cc2)c2ccc(N)cc2)C=CC1=N`: the carcinogen call reads like this: (Species: HUMAN, Route: ORAL, INHALATION, DERMAL, Tumor Site: Type of Lesion: URINARY BLADDER) “active; positive”; (Species: RAT, Strain/Sex: SPRAGUE-DAWLEY/FEMALE, Route: GAVAGE, Dose: 0, 200 MG/KG BW 2/WK FOR 8 WK WITH A 1 WK REST AFTER 2 WK THEN STARTING AT 9 WK 100 MG/KG BW 2/WK FOR DURATION OF STUDY) “inactive; negative”; (Species: RAT, Strain/Sex: SPRAGUE-DAWLEY/MALE, Route: GAVAGE, Dose: 0, 200 MG/KG BW 2/WK FOR 8 WK WITH A 1 WK REST AFTER 2 WK THEN STARTING AT 9 WK 100 MG/KG BW 2/WK FOR DURATION OF STUDY) “inactive; negative”.
Consider `c1ccc2c(c1)ccc1ccccc12`, for which, under “Species: RAT, Strain/Sex: OSBORNE-MENDEL/FEMALE, Route: INTRAPULMONARY IMPLANT, Dose: 0, 1, 3, 10 MG IN BEESWAX AND TRIOCTANOIN IMPLANTED IN LUNG (STUDY DURATION: 141 WK), Dose: 0, 1, 3, 10 MG IN BEESWAX AND TRIOCTANOIN IMPLANTED IN LUNG (STUDY DURATION: 141 WK)”, the carcinogen call is “inactive; negative”.
As for `Brc1c(Br)c(Br)c(Oc2c(Br)c(Br)c(Br)c(Br)c2Br)c(Br)c1Br`, the carcinogen call by setting is: (Species: MOUSE, Strain/Sex: B6C3F1/FEMALE, Route: ORAL, Dose: 0, 25000, 50000 PPM IN DIET FOR 103 WK (STUDY DURATION: 103 WK), Dose: 0, 25000, 50000 PPM IN DIET FOR 103 WK (STUDY DURATION: 103 WK)) “inactive; negative”; (Species: MOUSE, Strain/Sex: B6C3F1/MALE, Route: ORAL, Dose: 0, 25000, 50000 PPM IN DIET FOR 103 WK (STUDY DURATION: 103 WK), Dose: 0, 25000, 50000 PPM IN DIET FOR 103 WK (STUDY DURATION: 103 WK), Tumor Site: Type of Lesion: LIVER: HEPATOCELLULAR ADENOMA OR CARCINOMA, THYROID GLAND: FOLLICULAR CELL ADENOMA OR CARCINOMA) “equivocal”; (Species: RAT, Strain/Sex: F344/FEMALE, Route: ORAL, Dose: 0, 25000, 50000 PPM IN DIET FOR 103 WK (STUDY DURATION: 103 WK), Dose: 0, 25000, 50000 PPM IN DIET FOR 103 WK (STUDY DURATION: 103 WK), Tumor Site: Type of Lesion: LIVER: NEOPLASTIC NODULE, NEOPLASTIC NODULE OR HEPATOCELLULAR CARCINOMA) “active; positive”; (Species: RAT, Strain/Sex: F344/MALE, Route: ORAL, Dose: 0, 25000, 50000 PPM IN DIET FOR 103 WK (STUDY DURATION: 103 WK), Dose: 0, 25000, 50000 PPM IN DIET FOR 103 WK (STUDY DURATION: 103 WK), Tumor Site: Type of Lesion: LIVER: NEOPLASTIC NODULE, NEOPLASTIC NODULE OR HEPATOCELLULAR CARCINOMA) “active; positive”.
Regarding `Cc1cc(C)c(N=Nc2c(O)c(S(=O)(=O)O)cc3cc(S(=O)(=O)O)ccc23)cc1C`, the carcinogen call (Species: RAT, Route: ORAL, Tumor Site: Type of Lesion: LIVER) was “active; positive”.
In the case of `O=NN1CCC(=O)NC1=O`, the carcinogen call runs as follows: (Species: RAT, Strain/Sex: WISTAR/FEMALE, Route: ORAL, Dose: 0, 450 MG/L CITRATE BUFFER SOLUTION IN DRINKING WATER 5D/WK FOR AN AVERAGE TOTAL DOSE OF 0, 950 MG (STUDY DURATION: 28 W, Dose: 0, 450 MG/L CITRATE BUFFER SOLUTION IN DRINKING WATER 5D/WK FOR AN AVERAGE TOTAL DOSE OF 0, 950 MG (STUDY DURATION: 28 W, Tumor Site: Type of Lesion: LIVER: CARCINOMA) “active; positive”; (Species: RAT, Strain/Sex: WISTAR/MALE, Route: ORAL, Dose: 0, 450 MG/L CITRATE BUFFER SOLUTION IN DRINKING WATER 5D/WK FOR AN AVERAGE TOTAL DOSE OF 0, 1250 MG (STUDY DURATION: 32, Dose: 0, 450 MG/L CITRATE BUFFER SOLUTION IN DRINKING WATER 5D/WK FOR AN AVERAGE TOTAL DOSE OF 0, 1250 MG (STUDY DURATION: 32, Tumor Site: Type of Lesion: LIVER: CARCINOMA, KIDNEY: ADENOMA) “active; positive”.

The values are drawn from PubChem BioAssay AID1259411 (Chemical Carcinogenesis Research Information System (CCRIS), 2018).
